Earlier results as cited in patent publication US5206382A, “Indole derivatives, pharmaceutical compositions and methods of treating neurological and psychiatric disorders” (Fidia Georgetown Institute for the Neurosciences, priority 1991, dated 1993).

Legend:
[1] = system: rats; settings: dose-related; reduced by both PK-11195 and Flumazenil; cited from earlier work
[2] = system: MBR; settings: in words; cited from earlier work
[3] = system: MBR; settings: in words; cited from earlier work; remark: listed apart in the source
[4] = system: GABAA receptor; settings: in words; cited from earlier work

CCCN(CCC)C(=O)Cc1c(-c2ccc(Cl)cc2)nc2ccc(Cl)cn12 [Alpidem]
conflict response [1]: anticonflict (anxiolytic) action
affinity for the MBR [2]: high affinity
cholesterol influx into mitochondria and formation of pregnenolone [3]: facilitates cholesterol influx into mitochondria and the formation of pregnenolone
binding to the GABAA receptor / BZD recognition sites on GABAA receptors [4]: high affinity
